Patent publication US20220096529A1, “2-HYDROXYPROPYL-BETA-CYCLODEXTRIN (HPBETACD) FOR USE IN THE TREATMENT OF BREAST CANCER” (UNIVERSITY OF THE WITWATERSRAND, JOHANNESBURG, priority 2019, published 2022)
Where two headings read alike, the source gives them in different places.

Assays:
MCF7 cells [1] = test: BODIPY lipid droplet staining; type: cell-based, human
Procedure: Lipid droplets store cholesterol and HPβCD was able to reduce accumulation and storage of cholesterol in cancer cells (see FIG. 52). […] (A) is untreated, (B) is positive and (C) is treated. […] Lipid droplets store cholesterol and HPβCD was able to reduce accumulation and storage of cholesterol in cancer cells.

SREBP-1 in MRC-5 cells = test: Western blotting for SREBP-1; type: cell-based, human; settings: MRC-5, 10 mM HPβCD, 24 hrs
Procedure: (§1) In order to delve in to more detailed mechanisms of cholesterol depletion a western blotting analysis was conducted for SREBP-1 protein, which is a known transcription factor involved in cholesterol homeostasis. Lysates from MCF7, MDA-MB-231 and MRC-5 cells were used. 10 mM HPβCD was treated for 24 hrs. SREBPs are key elements responsible for the gene expression of vital enzymes involved in fatty acid synthesis which includes SREBP 1 and SREBP 2. […] In order to investigate this characteristic feature of SREBPs a western blot analysis was conducted to see if HPβCD treatment does alter SREBP levels.

SREBP-1 in MCF7 cells = test: Western blotting for SREBP-1; type: cell-based, human; settings: MCF7, 10 mM HPβCD, 24 hrs
Procedure: as §1

[2] = system: SREBP-1 in MDA-MB-231 cells; test: Western blotting for SREBP-1; type: cell-based, human; settings: MDA-MB-231, 10 mM HPβCD, 24 hrs
Procedure: as §1

MCF7 cells [3] = test: Mice xenograft, ER+ breast cancer; type: in vivo, Nude Mice, MF-1 strain
Procedure: Since the potency of HPβCD against breast cancer was established in our in vitro assays, a thorough investigation in a mice model was conducted (Nude Mice. MF-1 strain). MCF-7 and MDA-MB-231 cells were injected in 32 mice (16 for each cell type) and after tumour development, was treated with HPβCD (3000 mg/kg b.w.). Thrice a week dose treatment plan was followed throughout the study.
To examine if HPβCD can be used as a future anti-breast cancer drug, mice xenografts were prepared. MCF7 cells (5 million) cells were injected in 16 mice with weekly β-estradiol supplementation. The study for triple negative induced breast cancer (MDA-MB-231) is complete. Up to 4 million cells were injected in 16 mice. This was subdivided in three more groups namely: Late stage, intermediate stage and early stage estrogen negative cancer. 4 mice were grouped as untreated (not receiving HPβCD), 4 for treated (late stage), 3 for treated (intermediate stage) and 3 for treated (early stage).
The anticancer effect of HPβCD on estrogen positive MCF7 cells induced tumours in xenograft mice model was also tested. The study was not completed as only 4 out of 16 mice developed tumours. But the mice who developed tumour were treated with HPβCD and 9.6% tumour reduction was observed (FIGS. 49 and 50).

MCF7 cells [4] = test: Filipin cholesterol staining; type: cell-based, human
MRC-5 cells [5] = test: Mitochondrial outer membrane potential assay (MOMP); type: cell-based, human; settings: MRC-5, 10 mM HPβCD, 24 hrs
Procedure: (§2) One of the key hallmarks of apoptosis is the loss of mitochondrial membrane potential. To investigate that aspect we did a MOMP assay which validates our Cell-APOPercentage assay. This assay was tested on three cell lines MCF7, MDA-MB-231 & MRC-5. The top right and bottom hand quadrants of each plot represents healthy (FL2-A) and apoptotic (FL1-A) cells respectively (see FIGS. 13 to 15).
(§3) From the results obtained from MTT (IC50 values) and Cell-APOPercentage assays it was quite evident that ˜10 mM HPβCD caused cellular growth inhibition through apoptosis in cancer cells and had little or no effect in normal cells. Therefore, we selected just 10 mM HPβCD going forward as the only working concentration for HPβCD treatment. 24 hrs time point was selected (HPβCD & 10 mM H2O2) because mitochondrial membrane potential loss is an early cellular event.

MDA-MB-231 cells [6] = test: as above; type: cell-based, human; settings: MDA-MB-231, 10 mM, 24 hrs
Procedure: as §2, §3

MCF7 cells [7] = test: as above; type: cell-based, human; settings: MCF7, 10 mM, 24 hrs
Procedure: as §2, §3

MRC-5 cells [8] = test: ROS assay; type: cell-based, human
Procedure: (§4) To further validate the occurrence of apoptosis and to investigate the exact mechanisms if apoptosis, a ROS assay was conducted to capture the production of ROS. […] In order to be in solidarity with this fact, a ROS assay was performed in three cell lines: MCF7, MDA-MB-231 & MRC-5. Like before, HPβCD and the positive (10 mM H2O2) were treated for 24 hrs. The right hand section in each plot represents the production of ROS.

MDA-MB-231 cells [9] = test: ROS assay; type: cell-based, human
Procedure: as §4

MCF7 cells [10] = test: ROS assay; type: cell-based, human
Procedure: as §4

MDA-MB-231 cells [11] = test: Alexa Fluor lipid raft staining; type: cell-based, human
MDA-MB-231 cells [12] = test: BODIPY lipid droplet staining; type: cell-based, human
Description: Lipid droplets store cholesterol and HPβCD was able to reduce accumulation and storage of cholesterol in cancer cells.

HEK-293 cells = type: cell-based, human
Procedure: Cells were cultured in appropriate medium supplemented with 10% FCS, penicillin (100 U/ml), and streptomycin (100 μg/ml) (Gibco) at 5% CO2 in a 37° C. incubator.
Four different cell lines were used MCF7 (ER+). MDA-MB-231 (ER−), MRC-5 (Lung Fibroblasts) and HEK-293 (Embryonic kidney). MRC-5 and/or HEK-293 were used as control cell lines depending on availability.
In order to determine whether HPβCD has the ability to induce cancer cell death a primary screening using an MTT assay was performed. Three different time points 24 hrs.

MCF7 cells [13] = test: Alexa Fluor lipid raft staining; type: cell-based, human
Procedure: (B) is positive and (C) is treated.

2-hydroxypropyl-β-cyclodextrin [HPβCD]
lipid droplets (BODIPY) in treated vs untreated cells (MCF7 cells [1]): decrease in lipid droplets
SREBP-1 activity compared to untreated lysate (SREBP-1 in MRC-5 cells): remained equal
SREBP-1 protein level compared to untreated lysate (SREBP-1 in MCF7 cells): about five times less activity of SREBP-1
SREBP-1 protein level compared to untreated lysate [2]: about two and a half times less activity of SREBP-1
average tumour size (MCF7 cells [3]; ER+ MCF7 mice, treated for 5 weeks): 5.3 mm^3
tumour outcome (MCF7 cells [3]; Mouse No. 29, 30 and 32, treated for 5 weeks): healed completely
tumour size (MCF7 cells [3]; Mouse No. 31, treated for 5 weeks): 21.28 mm^3
Filipin fluorescence compared to untreated (MCF7 cells [4]; MCF7, 10 mM HPβCD, 24 hrs, ImageJ): four times less fluorescence
cholesterol (Filipin staining) in treated vs untreated cells (MCF7 cells [4]; MCF7, FIG. 51): decreased cholesterol
apoptotic cells (MRC-5 cells [5]): 12.8%
non-apoptotic/healthy population (MRC-5 cells [5]): 98.2%
apoptotic cells / cell death (loss of mitochondrial membrane potential) (MDA-MB-231 cells [6]): 78.1%
apoptotic population (loss of mitochondrial membrane potential) (MCF7 cells [7]): 92.1%
ROS production compared to untreated (MRC-5 cells [8]; MRC-5, 10 mM HPβCD): ~4 folds
ROS generation (MRC-5 cells [8]; MRC-5, 10 mM, 24 hrs): 10.8%
ROS production compared to untreated (MDA-MB-231 cells [9]; MDA-MB-231, 10 mM HPβCD): about 4 fold
ROS generation (MDA-MB-231 cells [9]; MDA-MB-231, 10 mM, 24 hrs): 13.7%
ROS production compared to untreated (MCF7 cells [10]; MCF7, 10 mM HPβCD): about 2.5 fold
ROS generation (MCF7 cells [10]; MCF7, 10 mM, 24 hrs): 17.9%
lipid rafts (ALEXA FLUOR) in treated vs untreated cells (MDA-MB-231 cells [11]): decrease in lipid rafts
lipid droplets (BODIPY) in treated vs untreated cells (MDA-MB-231 cells [12]): decrease in lipid droplets
IC50 (HEK-293 cells; HEK-293, 24 hrs): 22.8 mM
IC50 (HEK-293 cells; HEK-293, 48 hrs): 26.5 mM
IC50 (HEK-293 cells; HEK-293, 72 hrs): 50.3 mM
growth inhibition (HEK-293 cells; HEK-293, till 10 mM HPβCD, 24 hrs and 48 hrs): absolutely zero growth inhibition
lipid rafts (ALEXA FLUOR) in treated vs untreated cells (MCF7 cells [13]): decrease in lipid rafts
